# Assay results published in patent publication US20230414552A1, “NOVEL METHODS” (Colgate-Palmolive Company, priority 2020, published 2023).
# Legend:
# Assay type in all cases: cell-based
# PDLSCs [1] = test: Toluidine blue staining of surviving PDLSCs after co-culture with activated T cells
# Source text: After co-culture, toluidine blue staining allows for observation of the surviving PDLSCs that remain on the culture plates as positive staining. […] Natural ERK activators, PEITC and resveratrol, protect PDLSCs survival.
# Wnt/β-catenin = test: Western blot of ERK downstream signaling in PDLSCs; conditions: PDLSCs after treatment
# Source text: Subsequently, ERK downstream signaling pathways involve screening using a Western blot technique. This includes screening for Shp2 signaling, Notch signaling, and Wnt signaling.
# PDLSCs [2] = test: Western blot of osteogenic genes Runx2 and ALP in PDLSCs; conditions: PDLSC, 1 uM PEITC or 5 uM resveratrol, osteogenic induction
# Method: The expression of the osteogenic genes runt-related transcription factor 2 (Runx2) and alkaline phosphatase (ALP) are also elevated in PEITC or resveratrol treated groups, assessable by Western blot. […] To examine the effect of natural compounds yellow and white curcumin extracts in GMSC and PDLSC osteogenesis, cells are treated with 5 μM yellow and white curcumin extracts under osteogenic induction. Alizarin red staining show yellow curcumin extract, but not white curcumin extract treatment elevated osteogenic differentiation, as indicated by increased mineralized nodule formation. The stained positive areas were quantified using NIH ImageJ software and shown as a percentage of the total area.
# PDLSCs [3] = test: BrdU analysis of PDLSC proliferation; conditions: ERK activator treatment of PDLSCs
# Source text: (§1) To examine whether ERK activator can elevate PDLSC function through Wnt signaling, five different ERK activators are used to treat PDLSCs, and BMSCs (“Bone marrow-derived mesenchymal stem/stromal cells”) serve as the control in this experiment.
# CD3+ T cells = test: PDLSC/T cell co-culture, flow cytometric analysis of apoptotic T cells; conditions: flow cytometry
# Method: PEITC and resveratrol are tested to determine whether they contribute to PDLSC immunomodulation. A PDLSC/T cell co-culture experiment examines the immunomodulatory properties of PDLSCs with different compounds treatment.
# GMSC = test: BrdU incorporation assay of GMSC proliferation; conditions: for Brdu + BMSC/Total Cells (%): control 28.1% ± 0.75
# PDLSCs [4] = test: Alizarin red staining of PDLSC osteogenesis under osteogenic induction; conditions: for Mineralized Area (% Total Area): control 47% ± 3.61
# Method: To examine the effect of natural compounds PEITC and resveratrol in PDLSC osteogenesis, cells are treated with 1 uM PEITC or 5 uM resveratrol under osteogenic induction. […] The stained positive areas are then quantifiable using NIH ImageJ software and shown as a percentage of the total area. To examine the effect of natural compounds yellow and white curcumin extracts in GMSC and PDLSC osteogenesis, cells are treated with 5 μM yellow and white curcumin extracts under osteogenic induction. Alizarin red staining show yellow curcumin extract, but not white curcumin extract treatment elevated osteogenic differentiation, as indicated by increased mineralized nodule formation. The stained positive areas were quantified using NIH ImageJ software and shown as a percentage of the total area.
# BMSCs = test: BrdU analysis of BMSC proliferation (control cells); conditions: BMSCs as control cells
# Source text: as §1
SMILES,PDLSC survival from activated T cell attack (toluidine blue staining) (PDLSCs [1]),Wnt/β-catenin activation (Western blot) (Wnt/β-catenin),expression of Runx2 (Western blot) (PDLSCs [2]),expression of alkaline phosphatase (ALP) (Western blot) (PDLSCs [2]),PDLSC proliferation rate (BrdU analysis) (PDLSCs [3]),PDLSC immunomodulation (AnnexinV+7AAD+ double positive apoptotic CD3+ T cells) (CD3+ T cells),GMSC cell proliferation (BrdU incorporation assay) (GMSC; 5 uM),Brdu + BMSC/Total Cells (%) (GMSC; 5 μM),"osteogenic differentiation, mineralized nodule formation (Alizarin red staining) (PDLSCs [4]; 5 uM resveratrol)",Mineralized Area (% Total Area) (PDLSCs [4]; 5 μM),effect on proliferation rate in BMSCs (BrdU analysis) (BMSCs),GMSC cell proliferation (BrdU incorporation assay) (GMSC; 1 uM),Brdu + BMSC/Total Cells (%) (GMSC; 1 μM),"osteogenic differentiation, mineralized nodule formation (Alizarin red staining) (PDLSCs [4]; 1 uM PEITC)",Mineralized Area (% Total Area) (PDLSCs [4]; 1 μM)
"Oc1ccc(/C=C/c2cc(O)cc(O)c2)cc1 [resveratrol, 3,5,4′-trihydroxy-trans-stilbene]",protect,highly activated,elevated,elevated,significantly increases,significantly promotes,significantly elevated,47.6% ± 3.17,elevate,59% ± 2.00,not observable,–,–,–,–
"S=C=NCCc1ccccc1 [PEITC, Phenethyl Isothiocyanate]",protect,highly activated,elevated,elevated,significantly increases,significantly promotes,–,–,–,–,not observable,significantly elevated,48.6% ± 4.79,elevate,65% ± 3.46
"CC(C)(C)c1cc(O)ccc1O [t-Butylhydroquinone, reference compound]",–,highly activated,–,–,significantly increases,–,–,–,–,–,not observable,–,–,–,–
